Source: patent publication US9399032B2, “Methods and compositions for treating degenerative and ischemic disorders” (The General Hospital Corporation, priority 2009, dated 2016)
Where a name gives a salt, the structure may show the parent alone.

What was measured:
[1] = system: purified recombinant PCYT2; assay: PCYT2 enzyme assay in vitro; format: biochemical; settings: 50-1000 μM meclizine or 50-600 μM S-meclizine
Description: FIGS. 16 C-D are line graphs showing that PCYT2 (CTP:phosphoethanolamine cytidylyltransferase 2) is a target of meclizine (16C) and S-meclizine (16D). PCYT2 enzyme assays were carried out in vitro with purified recombinant PCYT2 in the presence of 50-1000 μM meclizine or 50-600 μM of S-meclizine.
CTP:Phosphoethanolamine Cytidylyltransferase (PCYT2) catalyzes the formation of CDP-ethanolamine, which is often the rate regulatory step in the PE-Kennedy pathway. See, e.g., Fullerton et al., J Biol Chem 18; 284(38):25704-13 (2009). To determine whether meclizine affects PCYT2 activity, PCYT2 (CTP:phosphoethanolamine cytidylyltransferase 2) enzyme assays were carried out in vitro with purified recombinant PCYT2 in the presence of 50-1000 μM meclizine or 50-600 μM of S-meclizine. For additional details see Zhu et al., J Lipid Res 49: 2197 (2008).

AMPK = assay: Western blot detection of AMPK phosphorylation; format: cell-based; settings: C2C12 myotubes, 24 hours of treatment
Description: The ability of meclizine, S-meclizine and R-meclizine to activate AMPK in C2C12 myotubes was also evaluated using Western blot detection of AMPK phosphorylation in C2C12 myotubes following 24 hours of treatment with R-meclizine (R-Mec), S-meclizine (S-Mec) and the racemic mixture (Rac-Mec).

MCH58 fibroblasts [2] = assay: Global gene expression profile and quantitative RT-PCR; format: cell-based, human
Description: Next, a global gene expression profile was performed on fibroblasts following a six hour meclizine treatment (i.e., a time point having maximal OXPHOS inhibition). Oligonucleotide microarray experiments were conducted as follows. Total RNA was extracted from ˜2 million MCH58 cells with RNeasy mini kit (Qiagen). Cells were either grown in 10 mM glucose or 10 mM galactose for 3 passages and for the drug treated samples, and treated with either 0.1% DMSO or 50 μM meclizine for 6 hours. 10 ug of RNA was used to synthesize cDNA with a T7-(dT)24 primer and the SuperScript one-cycle cDNA synthesis kit (Affymetrix). cRNA labeling, hybridization to human U133 plus 2.0 oligonucleotide array (Affymetrix, CA), washing and staining were performed as recommended by Affymetrix. For each condition, 3 biological replicates were used for the total of 6 arrays. GLS expression was confirmed by quantitative RT-PCR using TaqMan assay (Applied Biosystems).

MCH58 fibroblasts [3] = assay: Glucose versus galactose cell growth screen (metabolic state-dependent lethality); settings: approximately 10 μM compound, 72 hours; log10 fold change of normalized cell number in glucose versus galactose
Description: The assay included monitoring or measuring cell growth in cells that are grown in glucose (which allows the cell to utilize glycolysis) or in galactose (which switches the cell energy production from glycolysis to the OXPHOS pathway).
The high glucose medium was replaced with 10 mM glucose or 10 mM galactose wherever indicated. All media contained 1 mM pyruvate and 4 mM glutamine.
Cell number quantification high throughput assays were performed as follows. […] 24 hours later, cells were washed twice in PBS and media was replaced with either 10 mM glucose or 10 mM galactose containing media.
Approximately 100 nL of each compound was pin-transferred in duplicate into the plates with a steel pin array using the CyBi-Well robot (CyBio). […] Compound-treated plates were incubated at 37° C. for 72 hours. […] Wells were then washed once and stored in PBS. Cell culture plates were stored at 4° C. until time of imaging, which was at most 24 hours after fixation.
Imaging was performed by Arrayscan VTi automated microscope (ThermoFisher Scientific) with the use of an automated plate stacker. Appropriate filter sets for the detection of the Hoescht fluorescent signal were used. Four non-overlapping images at 5× magnification (NA 0.25) were acquired for a field of view of 1.3 mm×1.3 mm per image. The plate stacker and microscope including an auto-focusing algorithm were controlled entirely with ArrayScan software. Images were captured and stored simultaneously in at least two independent locations. Image analysis was performed using the freely available open-source software package CellProfiler. […] Images were analyzed individually by first identifying nuclei using the Hoescht staining signal.
Total number of nuclei per field were recorded, and the four images per well were totaled to give the cell count per well. Computation was performed using a UNIX computer cluster. Appropriate masking of each nucleus was ensured by visually monitoring each batch at its onset and intermittently throughout the run.
The fibroblast cells were seeded on Day 0 and incubated for 24 hours in standard culture media.
Normalized cell counts were computed separately for each 96-well plate by dividing the cell count of each well with the trimmed mean (the average after discarding the largest and smallest value) of the cell counts for the 16 DMSO treated wells. […] The remaining replicate measurements were averaged, and fold changes were computed as the ratio between the average normalized counts for the glucose and galactose screens. To evaluate statistical significance, Z-scores were computed for each well against the DMSO (null) distribution and averaged Z-scores across replicates. Wells with average Z-score greater than 2.5 were considered significant.
By jointly analyzing the glucose and galactose results, a glucose-galactose cell growth ratio can be calculated (Sglu/gal) that represents the log10 fold-change in cell growth in a glucose rich media divided by the log10 fold-change in cell growth in a galactose rich media. […] Low Sglu/gal scores (e.g., ranging between approximately (−) 0.1 to (−) 0.7) may arise from inhibition of glycolysis or from inhibition of proliferation, since cells grown in glucose-rich media divide more rapidly.

[4] = system: C. elegans expressing 128Q huntingtin fragment in touch receptor neurons; format: in vivo
Description: Meclizine was also tested in an animal model of Huntington's disease. Transgenic C. elegans touch receptor neurons express an N-terminal fragment of huntingtin (htt) comprising 128 glutamine repeats, as opposed to seventeen glutamine repeats in the wild type protein. These neurons show polyQ-dependent neuronal dysfunction resulting in defective posterior mechanosensation. Parker et al., Nat Genet 37:349 (2005) Animals co-expressing YFP and N-terminal htt fused to CFP in touch receptor neurons were used for drug testing. See, eg., Parker et al., Proc Natl Acad Sci USA 98:13318 (2001). Synchronized L1 larvae, obtained by hypochlorite extraction, were incubated with drugs in 96 wells plates in 50 μl M9 medium with OP-50 bacteria and […] streptomycin, at 20° C. during 3 days as previously described. Three independent assays were performed and a minimum of 100 worms were tested per dose.
Worms were treated with DMSO or 33 μM meclizine for 3 days. Animals were considered as touch responsive if they reacted after light touch (e.g., by initiating a backward movement). Out of 3 touches, 2 or 3 reactions were regarded as responsive, and 0 or 1 reaction was regarded as unresponsive. Htt aggregation and axonal morphology in PLM neurons were scored using light microscopy as previously described (Parker et al., Proc Natl Acad Sci USA 98:13318 (2001)). Htt aggregation was scored using CFP fluorescence, axonal dystrophy was quantified using YFP fluorescence to detect axonal swelling.
Protein quantity was normalized using an anti-actin antibody (MP Biochemicals 69100).

[5] = system: Adult rat ventricular cardiomyocytes; assay: Simulated ischemia-reperfusion injury in isolated cardiomyocytes; format: cell-based
Description: The ability of meclizine to protect isolated cardiomyocytes and isolated hearts from ischemic injury was investigated as follows Adult rat ventricular cardiomyocytes were isolated by endotoxin-free collagenase perfusion, and the simulated ischemia-reperfusion injury was performed as previously described (Wojtovich and Brookes, Basic Res. Cardiol., 104:121-129 (2009)). Control cells were exposed to DMSO for 20 minutes. Test cells were exposed to either vehicle or doses of meclizine for 20 minutes, which was washed out before being subjected to ischemia for 60 minutes followed by reperfusion for 30 minutes under normoxic conditions in normoxic glucose-replete buffer at pH 7.4. Cell viability was assayed by Trypan blue exclusion. VO2 was assessed by isolating mitochondria and measuring both respirating cells and mitochondria using a Clark oxygen electrode (Wojtovich, supra).

Glutaminase (GLS) = assay: Western detection of Glutaminase (GLS) protein; format: cell-based; settings: Western blot
Description: To explore this hypothesis, activation of glycolysis via hypoxia inducible factor (HIF), a known transcriptional activator of glycolysis, was tested. HIF1-α and HIF2-α stabilization was assessed in HeLa cells by carrying out Western blot detection using anti-HIF1-α antibody (Cell Signaling Cat. No. 3716) and anti-HIF2-α antibody (Novus Biologicals). Protein was extracted from cells pre-treated with either 0.1% DMSO, 50 μM meclizine or 100 μM deferoxamine (Sigma Cat. No. D9533). Western detection of Glutaminase (GLS) was carried out on protein extracts from 293 cells using anti-GLS antibodies (gift from Dr. Javier Marquez, University of […], Spain).

For `Cc1cccc(CN2CCN(C(c3ccccc3)c3ccc(Cl)cc3)CC2)c1` (racemic) [Meclizine, meclizine hydrochloride], which “PCYT2 binding and inhibition” value [1] is on record?
The value was “binD to, and inhibit”.

And the “AMPK activation (phosphorylation)” value (AMPK)?
Its value is “activate AMPK”.

And the “HK2 expression fold change” value (MCH58 fibroblasts [2]; 50 μM, 6 hours)?
The value was 1.5 fold.

What about the TXNIP expression downregulated (MCH58 fibroblasts [2]; 50 μM, 6 hours) of the same compound?
The TXNIP expression downregulated was 35%.

What about the “GLS expression downregulated (microarray)” value (MCH58 fibroblasts [2]; 50 μM, 6 hours, relative to vehicle) of the same compound?
The value was ~40%.

And the “reduction in GLS transcript by quantitative real-time PCR” value (MCH58 fibroblasts [2]; 6 hours of treatment)?
The value was 50%.

And the “Sglu/gal (log10 fold change) Score” value (MCH58 fibroblasts [3])?
The value was 0.16.

And the PolyQ protein aggregation ([4]; 33.33 μM)?
Its PolyQ protein aggregation is “no effects”.

What about the “transgenic protein expression (worms)” value ([4]; 33.33 μM) of the same compound?
Its value is “no changes were observed”.

And the axonal swelling ([4]; 33.33 μM, PLM neurons)?
The axonal swelling was “reduced”.

What about the “sensory response to tail poke” value ([4]; mutant PolyQ animals, 3 days) of the same compound?
The value was “improved the sensory response to tail poke in a dose dependent manner”.

And the “concentration of optimal response” value ([4]; touch response)?
The value was 33.33 µM.

And the “protection against I/R at high concentrations” value ([5]; 50 μM and 100 μM)?
Its value is “not observed”.

What about the “protection of cardiomyocytes against I/R (cell viability, Trypan blue)” value ([5]; 60 minutes ischemia, 30 minutes reperfusion) of the same compound?
Its value is “protected cardiomyocytes against I/R at various concentrations”.

And the VO2 in cardiomyocytes ([5]; compared to DMSO treated cells)?
The VO2 in cardiomyocytes was “decrease in VO2”.

What about the GLS protein level (Glutaminase (GLS)) of the same compound?
Its GLS protein level is “not reduced”.
